The results in this text go back to patent US9498483B2, “2,3,5-trisubstituted thiophene compounds and uses thereof” (priority 2010, dated 2016).

The test system of assay [1] is HCV replicon I389luc-ubi-neo/NS3-3′/ET in ET (Huh-lucubineo-ET) cells. Briefly: Replicon assay (Biological Example 2), luciferase readout. In kind it is cell-based. As to conditions: Hepatitis C virus. The procedure, abridged: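 EC50 values come from Hill fits of % inhibition of replicon-driven firefly luciferase, relative to no-compound wells. Compounds were serially diluted (10 points, 3-fold, 0.1 nM–50 μM final, 0.5% DMSO) onto ET replicon cells and read after 48 h.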

The target in a further assay is T1, HCV polymerase (Hepatitis C virus genotype 1b, UniProt Q9WMX2).
T1 construct: (His)6 (C); made in house; host or cells: XL-1 cells (E. coli, by own knowledge)
Briefly: Polymerase assay of Biological Example 1 (IC50 values of Table 3). In kind it is biochemical. Particulars: IC50 values of Table 3, polymerase assay of Biological Example 1; read-out: NS5B-enzyme3.

The mark [2] stands for this setting: ET cells, luciferase activity 48 hours after compound.

pIC50: −log10 of the molar value.

With `COc1ccncc1-c1ccc(S(=O)(=O)N2CC(=O)N(c3cc(-c4ccccc4)sc3C(=O)O)[C@H](C3CCCCC3)C2)cn1` [Compound 204, 3-[(R)-2-Cyclohexyl-4-(4′-methoxy-[2,3′]bipyridinyl-5-sulfonyl)-6-oxo-piperazin-1-yl]-5-phenyl-thiophene-2-carboxylic acid], the pIC50 in assay [1] (between 100 nM and 5.0 uM) was 5.30 to 7.00; on HCV polymerase it was 8.70.

Turning to `O=C(O)c1sc(-c2ccccc2)cc1N1C(=O)CN(S(=O)(=O)c2cnc(N3CCCC3)c(Cl)c2)C[C@H]1C1CCCCC1` [Compound 169], the pIC50 is not below 7.00 in assay [1] (setting [2]) and 8.52 at HCV polymerase.

`CC(C)(C)C#Cc1cc(N2C(=O)[C@](C)(CCCO)OC[C@H]2C2CCCCC2)c(C(=O)O)s1` [Compound 7, 3-[(2S,5R)-5-Cyclohexyl-2-(3-hydroxy-propyl)-2-methyl-3-oxo-morpholin-4-yl]-5-(3,3-dimethyl-but-1-ynyl)-thiophene-2-carboxylic acid]: the pIC50 in assay [1] (setting [2]) was not below 7.00; on HCV polymerase it was 8.22.

`CC(C)(C)C#Cc1cc(N2C(=O)[C@@H](CCCO)OC[C@H]2C2CCCCC2)c(C(=O)O)s1` (single isomer, unassigned) [Compound 3]: the figures for the pIC50 (in assay [1] (setting [2]); on HCV polymerase) were not below 7.00 and 8.40, respectively.

For the compound `NCC1CCN(c2ccc(S(=O)(=O)N3CC(=O)N(c4cc(-c5ccccc5)sc4C(=O)O)[C@H](C4CCCCC4)C3)cn2)CC1` [Compound 143, 3-[(R)-4-(4-Aminomethyl-3,4,5,6-tetrahydro-2H-[1,2′]bipyridinyl-5′-sulfonyl)-2-cyclohexyl-6-oxo-piperazin-1-yl]-5-phenyl-thiophene-2-carboxylic acid], the pIC50 in assay [1] (setting [2]) was not below 7.00; on HCV polymerase it was 8.72.

In the case of `C[C@@H]1CCCN1c1ncc(S(=O)(=O)N2CC(=O)N(c3cc(-c4ccccc4)sc3C(=O)O)[C@H](C3CCCCC3)C2)cc1Cl` [Compound 170, 3-{(R)-4-[5-Chloro-6-((R)-2-methyl-pyrrolidin-1-yl)-pyridine-3-sulfonyl]-2-cyclohexyl-6-oxo-piperazin-1-yl}-5-phenyl-thiophene-2-carboxylic acid], the pIC50 is not below 7.00 in assay [1] (setting [2]) and 8.40 at HCV polymerase.

In the case of `CC(C)(C)C#Cc1cc(N2C(=O)CN(S(=O)(=O)C3CC3)C[C@H]2C2CCCCC2)c(C(=O)O)s1` [Compound 245, 3-((R)-2-Cyclohexyl-4-cyclopropanesulfonyl-6-oxo-piperazin-1-yl)-5-(3,3-dimethyl-but-1-ynyl)-thiophene-2-carboxylic acid], the pIC50 in assay [1] (between 100 nM and 5.0 uM) is 5.30 to 7.00; on HCV polymerase, 8.30.

With `COc1ccc(S(=O)(=O)N2CC(=O)N(c3cc(-c4ccccc4)sc3C(=O)O)C(C3CCCCC3)C2)cc1` (centres unmarked) [Compound 103, 3-[2-Cyclohexyl-4-(4-methoxy-benzenesulfonyl)-6-oxo-piperazin-1-yl]-5-phenyl-thiophene-2-carboxylic acid], the pIC50 in assay [1] (between 100 nM and 5.0 uM) is 5.30 to 7.00; on HCV polymerase it was 8.70.

In the case of `Cc1ccc(-c2cc(N3C(=O)C(O)CCC3C3CCCCC3)c(C(=O)O)s2)cc1` (centres unmarked) [Compound 317, 3-(6-Cyclohexyl-3-hydroxy-2-oxo-piperidin-1-yl)-5-p-tolyl-thiophene-2-carboxylic acid], the pIC50 is 5.30 to 7.00 in assay [1] (between 100 nM and 5.0 uM); 7.62 on HCV polymerase.

Turning to `O=C(O)c1sc(-c2ccccc2)cc1N1C(=O)CN(S(=O)(=O)c2ccc(N3CCCCC3)nc2)CC1C1CCCCC1` (centres unmarked) [Compound 84, 3-[2-Cyclohexyl-6-oxo-4-(3,4,5,6-tetrahydro-2H-[1,2′]bipyridinyl-5′-sulfonyl)-piperazin-1-yl]-5-phenyl-thiophene-2-carboxylic acid], the pIC50 in assay [1] (setting [2]) is not below 7.00; at HCV polymerase, 8.40.

On to `COCCN(CCOC)c1ccc(S(=O)(=O)N2CC(=O)N(c3cc(-c4ccccc4)sc3C(=O)O)C(C3CCCCC3)C2)cn1` (centres unmarked) [Compound 80, 3-(4-{6-[Bis-(2-methoxy-ethyl)-amino]-pyridine-3-sulfonyl}-2-cyclohexyl-6-oxo-piperazin-1-yl)-5-phenyl-thiophene-2-carboxylic acid], for which the values for the pIC50 (in assay [1] (setting [2]); on HCV polymerase) were not below 7.00 and 8.22, respectively.

As for `O=C(O)c1sc(-c2ccccc2)cc1N1C(=O)CN(S(=O)(=O)c2ccc(-n3cccn3)cc2)CC1C1CCCCC1` (centres unmarked) [Compound 101, 3-[2-Cyclohexyl-6-oxo-4-(4-pyrazol-1-yl-benzenesulfonyl)-piperazin-1-yl]-5-phenyl-thiophene-2-carboxylic acid], the pIC50 was 5.30 to 7.00 in assay [1] (between 100 nM and 5.0 uM); 7.96 on HCV polymerase.

Take `O=C(O)c1sc(-c2ccccc2)cc1N1C(=O)CN(S(=O)(=O)c2ccc(NC3CCCC3)nc2)CC1C1CCCCC1` (centres unmarked) [Compound 82, 3-[2-Cyclohexyl-4-(6-cyclopentylamino-pyridine-3-sulfonyl)-6-oxo-piperazin-1-yl]-5-phenyl-thiophene-2-carboxylic acid]: the pIC50 is not below 7.00 in assay [1] (setting [2]) and 8.22 on HCV polymerase.

Take `O=C(O)c1sc(-c2ccccc2)cc1N1C(=O)CN(S(=O)(=O)c2ccc(N3CCC(O)CC3)nc2)CC1C1CCCCC1` (centres unmarked) [Compound 93, 3-[2-Cyclohexyl-4-(4-hydroxy-3,4,5,6-tetrahydro-2H-[1,2′]bipyridinyl-5′-sulfonyl)-6-oxo-piperazin-1-yl]-5-phenyl-thiophene-2-carboxylic acid]: the results for the pIC50 (in assay [1] (setting [2]); at HCV polymerase) were not below 7.00 and 8.40, respectively.

As to `O=C(O)c1sc(-c2ccccc2)cc1N1C(=O)CN(S(=O)(=O)c2cccc3ccccc23)CC1C1CCCCC1` (centres unmarked) [Compound 110, 3-[2-Cyclohexyl-4-(naphthalene-1-sulfonyl)-6-oxo-piperazin-1-yl]-5-phenyl-thiophene-2-carboxylic acid], the pIC50 in assay [1] (setting [2]) is not above 5.30; on HCV polymerase, 6.74.

In the case of `CCCCCS(=O)(=O)N1CC(=O)N(c2cc(-c3ccccc3)sc2C(=O)O)C(C2CCCCC2)C1` (centres unmarked) [Compound 31, 3-[2-Cyclohexyl-6-oxo-4-(pentane-1-sulfonyl)-piperazin-1-yl]-5-phenyl-thiophene-2-carboxylic acid], the pIC50 in assay [1] (between 100 nM and 5.0 uM) was 5.30 to 7.00; on HCV polymerase, 7.33.

Turning to `O=C(O)c1ccc(S(=O)(=O)N2CC(=O)N(c3cc(-c4ccccc4)sc3C(=O)O)C(C3CCCCC3)C2)cc1` (centres unmarked) [Compound 30, 3-[4-(4-Carboxy-benzenesulfonyl)-2-cyclohexyl-6-oxo-piperazin-1-yl]-5-phenyl-thiophene-2-carboxylic acid], the pIC50 in assay [1] (setting [2]) was not above 5.30; at HCV polymerase, 8.52.

For the compound `CC(C)(C)c1ccc(-c2cc(N3C(=O)CCCC3C3CCCCC3)c(C(=O)O)s2)cc1` (centres unmarked) [Compound 113, 5-(4-tert-Butyl-phenyl)-3-(2-cyclohexyl-6-oxo-piperidin-1-yl)-thiophene-2-carboxylic acid], the pIC50 in assay [1] (between 100 nM and 5.0 uM) was 5.30 to 7.00; on HCV polymerase, 7.36.

Consider `C[C@H](O)C[C@H]1OC[C@@H](C2CCCCC2)N(c2cc(C#CC(C)(C)C)sc2C(=O)O)C1=O` [Compound 337, 3-[(2R,5R)-5-Cyclohexyl-2-((S)-2-hydroxy-propyl)-3-oxo-morpholin-4-yl]-5-(3,3-dimethyl-but-1-ynyl)-thiophene-2-carboxylic acid], for which the results for the pIC50 (in assay [1] (setting [2]); at HCV polymerase) were not below 7.00 and 8.70, respectively.

For the compound `CC(C)(C)OC(=O)N[C@@H]1CCN(c2ccc(S(=O)(=O)N3CC(=O)N(c4cc(-c5ccccc5)sc4C(=O)O)[C@H](C4CCCCC4)C3)cn2)C1` [Compound 146, 3-{(R)-4-[6-((R)-3-tert-Butoxycarbonyl-amino-pyrrolidin-1-yl)-pyridine-3-sulfonyl]-2-cyclohexyl-6-oxo-piperazin-1-yl}-5-phenyl-thiophene-2-carboxylic acid], the pIC50 in assay [1] (setting [2]) is not below 7.00; on HCV polymerase, 8.70.

As for `C[C@@H]1CCCN1c1ccc(S(=O)(=O)N2CC(=O)N(c3cc(-c4ccc(F)cc4)sc3C(=O)O)[C@H](C3CCCCC3)C2)cn1` [Compound 185, 3-{(R)-2-Cyclohexyl-4-[6-((R)-2-methyl-pyrrolidin-1-yl)-pyridine-3-sulfonyl]-6-oxo-piperazin-1-yl}-5-(4-fluoro-phenyl)-thiophene-2-carboxylic acid], the results for the pIC50 (in assay [1] (setting [2]); at HCV polymerase) were not below 7.00 and 9.00, respectively.

On to `Cc1ncc(S(=O)(=O)N2CC(=O)N(c3cc(C#CC(C)(C)C)sc3C(=O)O)[C@H](C3CCCCC3)C2)n1C` [Compound 255, 3-[(R)-2-Cyclohexyl-4-(2,3-dimethyl-3H-imidazole-4-sulfonyl)-6-oxo-piperazin-1-yl]-5-(3,3-dimethyl-but-1-ynyl)-thiophene-2-carboxylic acid], for which the pIC50 was 5.30 to 7.00 in assay [1] (between 100 nM and 5.0 uM); 8.30 at HCV polymerase.

Consider `COc1ccc(-c2cc(N3C(=O)CCCC3C3CCCCC3)c(C(=O)O)s2)cc1` (centres unmarked) [Compound 114, 3-(2-Cyclohexyl-6-oxo-piperidin-1-yl)-5-(4-methoxy-phenyl)-thiophene-2-carboxylic acid], for which the pIC50 is 5.30 to 7.00 in assay [1] (between 100 nM and 5.0 uM); 7.05 at HCV polymerase.

Regarding `O=C(O)c1sc(-c2ccccc2)cc1N1C(=O)CN(S(=O)(=O)c2ccc(N3CC[C@@H](F)C3)nc2)CC1C1CCCCC1` (stereo partly drawn) [Compound 120, 3-{2-Cyclohexyl-4-[6-((R)-3-fluoro-pyrrolidin-1-yl)-pyridine-3-sulfonyl]-6-oxo-piperazin-1-yl}-5-phenyl-thiophene-2-carboxylic acid], the pIC50 in assay [1] (setting [2]) is not below 7.00; on HCV polymerase, 8.22.

Consider `CCC1CCCN1c1ccc(S(=O)(=O)N2CC(=O)N(c3cc(-c4ccccc4)sc3C(=O)O)[C@H](C3CCCCC3)C2)cn1` (stereo partly drawn) [Compound 154, 3-{(R)-2-Cyclohexyl-4-[6-(2-ethyl-pyrrolidin-1-yl)-pyridine-3-sulfonyl]-6-oxo-piperazin-1-yl}-5-phenyl-thiophene-2-carboxylic acid], for which the pIC50 in assay [1] (setting [2]) was not below 7.00; at HCV polymerase it was 8.52.
